Source: patent US20260124201A1, “CYCLOPENTANE COMPOUND” (Kissei Pharmaceutical Co., Ltd., priority 2022, published 2026)

Biological target: T1, human OX2R (Homo sapiens, UniProt O43614)
T1 construct: expressed in transfected cells
T1 sequence (O43614 1-444): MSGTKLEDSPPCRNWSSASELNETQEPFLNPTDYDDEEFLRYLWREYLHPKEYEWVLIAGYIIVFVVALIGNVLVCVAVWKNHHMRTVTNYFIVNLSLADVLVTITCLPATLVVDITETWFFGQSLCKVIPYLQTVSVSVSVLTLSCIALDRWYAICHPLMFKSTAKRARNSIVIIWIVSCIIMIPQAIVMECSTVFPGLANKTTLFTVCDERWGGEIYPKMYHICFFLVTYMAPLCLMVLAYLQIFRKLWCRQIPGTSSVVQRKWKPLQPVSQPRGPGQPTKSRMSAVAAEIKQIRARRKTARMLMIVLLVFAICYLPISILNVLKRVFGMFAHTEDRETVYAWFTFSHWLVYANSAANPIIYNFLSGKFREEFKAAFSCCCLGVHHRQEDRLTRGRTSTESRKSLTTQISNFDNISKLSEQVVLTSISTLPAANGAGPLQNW
Assay: Measurement of OX2R agonist activity (intracellular calcium concentration change, Fluo4-AM, FDSS 7000)
Type: cell-based
Details: compound concentration 10 μM; human OX2R-expressing CHO-K1 cells; 1 μM human orexin A peptide = 100%, medium alone = 0%
Text: The following abbreviations in the description, the figures and the tables have the following meanings, respectively. • AZADOL (registered trademark): 2-Hydroxy-2-azaadamantane • Boc2O: di-tert-butyl dicarbonate • DIPEA: N,N-diisopropylethylamine • DCM: dichloromethane • DMAP: 4-dimethylaminopyridine • DMF: N,N-dimethylformamide • DMSO: dimethylsulfoxide • Deoxo-Fluor: bis(2-methoxyethyl)-aminosulfur trifluoride • HATU: O-(7-azabenzotriazol-1-yl)-N,N,N′,N′-tetramethyluronium hexafluorophosphate • LDA: lithium diisopropylamide • MeCN: acetonitrile • Me4tBuXPhos: 2-di-tert-butylphosphino-3,4,5,6-tetramethyl-2′,4′,6′-triisopropyl-1,1′-biphenyl • MTBE: methyl tert-butyl ether • NMP: N-methylpyrrolidone • PdCl2(PPh3)2: dichlorobis(triphenylphosphine)palladium(II) • Pd(dba)2: bis(dibenzylideneacetone)palladium(0) • Pd2(dba)3: tris(dibenzylideneacetone)dipalladium(0) • Pd(dppf)Cl2: [1,1′-bis(diphenylphosphino)ferrocene]dichloropalladium(II) • Pd(PPh3)4: tetrakis(triphenylphosphine)palladium(0) • TEA: triethylamine • TFA: trifluoroacetic acid • THF: tetrahydrofuran • Xphos: 2-dicyclohexylphosphino-2′,4′,6′-triisopropylbiphenyl • Xphos Pd G3: (2-dicyclohexylphosphino-2′,4′,6′-triisopropyl-1,1′-biphenyl)[2-(2′-amino-1,1′-biphenyl)]palladium(II) methanesulfonic acid salt • 10% Pd/C: Palladium 10% on Carbon (wetted with ca. 55% water) • APS: aminopropylated silica gel • ODS: octadecyl-silylated silica gel • Method A: column chromatography with an aminopropylated silica gel column followed by a silica gel column • Chiral preparative column chromatography: chiral preparative column chromatography using YMC CHIRALART Cellulose-SB • Ref. No.: Reference Example Number • Str.: structural formula • Ex. No.: Example Number • Phys. data: physical data • ^1H-NMR: hydrogen nuclear magnetic resonance spectrum • CDCl3: chloroform-d1 • MS: mass spectrometry (The measured values in the tables were measured by electrospray ionization or multiionization using electrospray ionization-atmospheric pressure chemical ionization.) • Act.: activation rate of test substance at a compound concentration of 10 μM calculated by setting the fluorescence intensity obtained when human orexin A peptide was added at a concentration of 1 μM as 100% and the fluorescence intensity obtained when the medium alone was added as 0% • CHO: Chinese hamster ovary • HEPES: 2-[4-(2-hydroxyethyl)-1-piperazinyl]ethanesulfonic acid
A human OX2R sequence (Accession No. NM_001526.4) was inserted into the multiple cloning site of pcDNA3.4 (Life Technologies Japan Ltd.) to clone a plasmid vector for human OX2R expression. The plasmid was introduced into CHO-K1 cells using Lipofectamine 2000 (Life Technologies Japan Ltd.). Two days later, the transgenic CHO-K1 cells were passaged into 175T flasks and cultured selectively for 6 days. As a selection medium, Ham's F-12 Nutrient Mix (Life Technologies Japan Ltd.), containing Geneticin (registered trademark) (Life Technologies Japan Ltd.) at a final concentration of 1 mg/mL and inactivated fetal bovine serum (Biowest) at a final concentration of 10%, was used. After the selective culture, the cells were reseeded into 96-well plates, and a human OX2R-expressing cell line was obtained by limiting dilution.
The agonist effects of test substances on human OX2R were evaluated using the intracellular calcium concentration-change upon stimulation as an indicator. A day before measurement of the intracellular calcium concentrations, human OX2R-expressing cells suspended in a medium were seeded into 384-well plates at 5×10^3 cells/50 μL/well and cultured overnight in an incubator set at 37° C. and 5% CO2. After incubation, the medium was removed and replaced with 20 μL of a loading buffer. […]

CON(C)C(=O)C1(Cc2cccc(-c3ncccn3)c2)CCC(NS(C)(=O)=O)C1 (single isomer, unassigned) [Example 47, N-Methoxy-N-methyl-3-(methylsulfonamido)-1-(3-(pyrimidin-2-yl)benzyl)cyclopentane-1-carboxamide]
Act. (%): activation rate of test substance: 52%

CON(C)C(=O)[C@@]1(Cc2ccc(F)c(-c3ncc(F)cn3)c2)CC[C@H](NS(C)(=O)=O)C1 [Example 48, (1R,3S)-1-(4-Fluoro-3-(5-fluoropyrimidin-2-yl)benzyl)-N-methoxy-N-methyl-3-(methylsulfonamido)cyclopentane-1-carboxamide]
Act. (%): activation rate of test substance: 101%

CON(C)C(=O)[C@@]1(Cc2cccc(-c3ncc(C)cn3)c2)CC[C@H](NS(C)(=O)=O)C1 (relative stereo) [Example 18]
Act. (%): activation rate of test substance: 87%

CON(C)C(=O)[C@@]1(Cc2ccc(F)c(-c3ncc(C)cn3)c2)CC[C@H](NS(C)(=O)=O)C1 (relative stereo) [Example 24]
Act. (%): activation rate of test substance: 83%

CCS(=O)(=O)N[C@@H]1C[C@@](Cc2ccc(F)c(-c3ncc(F)cn3)c2)(C(=O)N(C)OC)C[C@@H]1F (relative stereo) [Example 36, (1R*,3R*,4S*)-3-(Ethylsulfonamido)-4-fluoro-1-(4-fluoro-3-(5-fluoropyrimidin-2-yl)benzyl)-N-methoxy-N-methylcyclopentane-1-carboxamide]
Act. (%): activation rate of test substance: 84%

CON(C)C(=O)[C@@]1(Cc2ccc(C(F)(F)F)c(-c3ncc(F)cn3)c2)CC[C@H](NS(C)(=O)=O)C1 (relative stereo) [Example 25]
Act. (%): activation rate of test substance: 63%

CON(C)C(=O)[C@@]1(Cc2cccc(-c3ncccn3)c2)C[C@@H](F)[C@H](NS(C)(=O)=O)C1 (relative stereo) [Example 32, (1R*,3R*,4R*)-3-Fluoro-N-methoxy-N-methyl-4-(methylsulfonamido)-1-(3-(pyrimidin-2-yl)benzyl)cyclopentane-1-carboxamide]
Act. (%): activation rate of test substance: 89%

CON(C)C(=O)[C@]1(Cc2ccc(F)c(-c3ncc(F)cn3)c2)C[C@@H](NS(C)(=O)=O)C(F)(F)C1 (relative stereo) [Example 42]
Act. (%): activation rate of test substance: 87%

CCN(C)C(=O)[C@@]1(Cc2cccc(-c3ncccn3)c2)CC[C@H](NS(C)(=O)=O)C1 (relative stereo) [Example 28, (1R*,3S*)—N-Ethyl-N-methyl-3-(methylsulfonamido)-1-(3-(pyrimidin-2-yl)benzyl)cyclopentane-1-carboxamide]
Act. (%): activation rate of test substance: 92%

CO[C@H]1C[C@](Cc2cccc(-c3ncc(F)cn3)c2)(C(=O)N(C)OC)C[C@H]1NS(C)(=O)=O [Example 67, (1R,3S,4R)-1-(3-(5-Fluoropyrimidin-2-yl)benzyl)-N,3-dimethoxy-N-methyl-4-(methylsulfonamido)cyclopentane-1-carboxamide]
Act. (%): activation rate of test substance: 88%

CON(C)C(=O)[C@@]1(Cc2cccc(-c3ncc(F)cn3)c2)C[C@H](C)[C@H](NS(C)(=O)=O)C1 (relative stereo) [Example 45, (1R*,3S*,4R*)-1-(3-(5-Fluoropyrimidin-2-yl)benzyl)-N-methoxy-N,3-dimethyl-4-(methylsulfonamido)cyclopentane-1-carboxamide]
Act. (%): activation rate of test substance: 93%

CON(C)C(=O)[C@@]1(Cc2cccc(-c3ccccc3C#N)c2)CC[C@H](NS(C)(=O)=O)C1 (relative stereo) [Example 10, (1R*,3S*)-1-((2′-Cyano-[1,1′-biphenyl]-3-yl)methyl)-N-methoxy-N-methyl-3-(methylsulfonamido)cyclopentane-1-carboxamide]
Act. (%): activation rate of test substance: 41%

CON(C)C(=O)[C@@]1(Cc2cc(-c3ncccn3)ccc2F)C[C@H](F)[C@H](NS(=O)(=O)C(F)(F)F)C1 (relative stereo) [Example 38, (1R*,3S*,4R*)-3-Fluoro-1-(2-fluoro-5-(pyrimidin-2-yl)benzyl)-N-methoxy-N-methyl-4-((trifluoromethyl)sulfonamido)cyclopentane-1-carboxamide]
Act. (%): activation rate of test substance: 93%

CON(C)C(=O)[C@@]1(Cc2ccc(F)c(-c3ncc(F)cn3)c2)CC[C@H](NS(=O)(=O)CF)C1 [Example 50, (1R,3S)-1-(4-Fluoro-3-(5-fluoropyrimidin-2-yl)benzyl)-3-((fluoromethyl)sulfonamido)-N-methoxy-N-methylcyclopentane-1-carboxamide]
Act. (%): activation rate of test substance: 110%

CON(C)C(=O)[C@@]1(Cc2cccc(-n3nccn3)c2)CC[C@H](NS(C)(=O)=O)C1 (relative stereo) [Example 27, (1R*,3S*)-1-(3-(2H-1,2,3-Triazol-2-yl)benzyl)-N-methoxy-N-methyl-3-(methylsulfonamido)cyclopentane-1-carboxamide]
Act. (%): activation rate of test substance: 87%

CON(C)C(=O)[C@@]1(Cc2ccc(F)c(-c3ncc(F)cn3)c2)C[C@H](F)[C@H](NS(=O)(=O)N(C)C)C1 (relative stereo) [Example 34, (1R*,3R*,4S*)-3-((N,N-Dimethylsulfamoyl)amino)-4-fluoro-1-(4-fluoro-3-(5-fluoropyrimidin-2-yl)benzyl)-N-methoxy-N-methylcyclopentane-1-carboxamide]
Act. (%): activation rate of test substance: 90%

CCS(=O)(=O)N[C@@H]1C[C@@](Cc2cc(-c3ncccn3)ccc2F)(C(=O)N(C)OC)C[C@@H]1F [Example 61, (1R,3R,4S)-3-(Ethylsulfonamido)-4-fluoro-1-(2-fluoro-5-(pyrimidin-2-yl)benzyl)-N-methoxy-N-methylcyclopentane-1-carboxamide]
Act. (%): activation rate of test substance: 105%

CCNC(=O)[C@@]1(Cc2cccc(-c3ccccc3)c2)CC[C@H](NS(C)(=O)=O)C1 (relative stereo) [Example 1, (1R*,3S*)-1-([1,1′-Biphenyl]-3-ylmethyl)-N-ethyl-3-(methylsulfonamido)cyclopentane-1-carboxamide]
Act. (%): activation rate of test substance: 50%

CON(C)C(=O)[C@@]1(Cc2cccc(-c3ccccc3)c2)CC[C@H](NS(C)(=O)=O)C1 (relative stereo) [Example 2, (1R*,3S*)-1-([1,1′-Biphenyl]-3-ylmethyl)-N-methoxy-N-methyl-3-(methylsulfonamido)cyclopentane-1-carboxamide]
Act. (%): activation rate of test substance: 84%

CON(C)C(=O)[C@]1(Cc2cccc(-c3ncccn3)c2)C[C@@H](NS(C)(=O)=O)C(F)(F)C1 (relative stereo) [Example 40, (1R*,4R*)-3,3-Difluoro-N-methoxy-N-methyl-4-(methylsulfonamido)-1-(3-(pyrimidin-2-yl)benzyl)cyclopentane-1-carboxamide]
Act. (%): activation rate of test substance: 88%

CON(C)C(=O)[C@@]1(Cc2cccc(-c3cscn3)c2)CC[C@H](NS(C)(=O)=O)C1 (relative stereo) [Example 16]
Act. (%): activation rate of test substance: 91%

CON(C)C(=O)[C@@]1(Cc2cccc(-c3ncccn3)c2)C[C@H](F)[C@H](NS(C)(=O)=O)C1 (relative stereo) [Example 33]
Act. (%): activation rate of test substance: 83%
